Entries after “also recorded” stand apart in the source; their conditions may differ.
Experiments:
vitamin A-deficient rats = test: Growth of vitamin A-deficient rats given the compounds orally in Wesson oil; assay type: in vivo, rat; details: for growth of vitamin A-deficient rats, comparison between atRA and its esters / growth of vitamin A-deficient rats compared to vehicle control: 83 pmole/day, FIG. 4; for growth of vitamin A-deficient rats, comparison between atRA and its esters / growth of vitamin A-deficient rats compared to vehicle control / growth (weight change) of vitamin A-deficient rats compared to atRA / growth response of vitamin A-deficient rats compared to atRA: 5 days; for in vivo activity relative to atRA (growth support): oral, vitamin A-deficient rats, overall estimate; for growth (weight change) of vitamin A-deficient rats compared to atRA: 83 pmoles/day oral in Wesson oil, FIG. 1; for growth response of vitamin A-deficient rats compared to atRA: 166 pmoles/day (50 μg/day atRA or 59.5 μg/day t-butyl-RA), FIG. 2
From the text: The first test was to determine if the esterified compounds when given orally could restore normal growth of vitamin A-deficient rats. For this study, Sprague-Dawley, weanling rats were obtained from Harlan (Indianapolis, Ind.). They were fed the purified vitamin A-deficient diet previously described (Suda et al., 1970, J. Nutr. 100:1049-152) supplemented with vitamins D, E and K (White et al., 1998, Proc. Natl. Acad. Sci. USA 95:13459-13464). When the animals stopped growing and began to lose weight, they were administered the indicated doses per day dissolved in Wesson oil. Controls were given the Wesson oil alone (vehicle group). The weight change over the 5-day study period was analyzed by ANOVA, followed by a matrix of pairwise comparison probabilities using four post-hoc tests when the overall P value was less than 0.05. The post-hoc comparison tests included: Turkey HSD multiple comparisons, Sheffe test, Fisher's least-significant-difference test and the Bonferroni adjustment test.
Weanling male rats were obtained from the Harlan Company and were housed individually in hanging wire cages and fed the vitamin A-deficient diet described previously (Suda et al., 1970). At approximately 70 days of age, the animals began to show a leveling off of growth and began to show weight loss. At this time, they were used for the following studies: They were given either 0.1 ml of Wesson oil (vehicle) or the indicated dose of atRA dissolved in the vehicle or one of the derivatives at the indicated dose dissolved in the vehicle. Body weights were recorded daily and plotted as cumulative weight gain or loss over the study period as indicated on the graphs. A daily dose of 83 pmoles (25 μg/day) of atRA is near the minimum amount needed to produce normal growth in […] rats as compared to the vehicle controls that continue to lose weight (FIG. 1). […] When the dose was increased to 50 μg/day of atRA or 59.5 μg/day of the t-butyl derivative, as expected, the growth response was identical.

normal male rats = test: Acute toxicity of atRA versus t-butyl-RA in normal male rats; assay type: in vivo, rat; details: for body weight change / apparent toxicity: second study, 1 mmole/kg/day for 5 days, FIG. 6
Method: Two independent toxicity studies were carried out with the t-butyl-RA derivative. […] However, the difference in testes weights between the atRA and t-butyl-RA groups was not statistically significant due to rather large biological variability.
We next examined the acute toxicity of the t-butyl derivative as compared to the atRA derivative in two independent trails. In these experiments, normal male rats weighing approximately 250-300 grams were used. They were individually housed in cages and given Purina lab chow as well as water ad libitum. […] This is an extremely large dose, and represents at least 3,600 times the amount of the t-butyl derivative needed to support a physiological growth response in vitamin A-deficient rats. […] Another indication of toxicity is testes weight as illustrated in FIG. 7.

pregnant rats (embryos) = details: female, Sprague Dawley, rat, in vivo, 18.5 embryonic day
From the text: Teratogenic activity of atRA is a serious drawback in its therapeutic potential. […] The results of this experiment illustrate that atRA is, indeed, teratogenic and that the t-butyl derivative shares this liability, but only when given at a dose of 10 times higher than that of atRA. Thus, there is a larger window of safety when using the t-butyl-RA derivative when compared to atRA.
In this experiment, 19 female rats were obtained from Sprague Dawley and were individually housed in cages and given purina chow as well as water ad libitum. After approximately two weeks of acclimation to the animal facility, the females were placed with normal males on the same diet, between 6:00 and 9:00 pm. The following morning, the females were checked for vaginal plugs indicating fertilization. Vaginal smears were then checked for sperm and when shown to be positive, the pregnant rat was placed in the study. At embryonic day 12.3 between 9:00 and 10:00 in the morning, the rats received the following treatments given as a bolus dose in oil orally. Four groups of rats received the vehicle; four received 0.1 mmole/kg (30 mg/kg) atRA in the oil vehicle; another group received an equal molar amount (35.7 mg/kg) of t-butyl-RA; and a final group received a ten-fold higher dose (357 mg/kg) of t-butyl-RA. The embryos were removed by cesarean section on day 18.5 and weighed as well as checked for cleft palette. […]

Q: `CC1=C(/C=C/C(C)=C/C=C/C(C)=C/C(=O)O)C(C)(C)CCC1` [atRA, all-trans-retinoic acid, reference compound] was tested. Which “growth of vitamin A-deficient rats, comparison between atRA and its esters” value (vitamin A-deficient rats) did it give?
A: superior to that of the cholesterol ester-fed group

Q: What does the source list for `CC1=C(/C=C/C(C)=C/C=C/C(C)=C/C(=O)O[C@H]2CC[C@@]3(C)C(=CCC4C3CC[C@@]3(C)C4CC[C@@H]3[C@H](C)CCCC(C)C)C2)C(C)(C)CCC1` (stereo partly drawn) [cholesterol ester, all-trans-retinoic acid cholesterol ester]?
A: growth of vitamin A-deficient rats compared to vehicle control (vitamin A-deficient rats): significantly enhanced growth compared to vehicle control animals; also recorded: clearly much improved over the vehicle control; growth of vitamin A-deficient rats, comparison between atRA and its esters (vitamin A-deficient rats): less effective; in vivo activity relative to atRA (growth support) (vitamin A-deficient rats): less effective; also recorded: one-third

Q: With `CC1=C(/C=C/C(C)=C/C=C/C(C)=C/C(=O)OC(C)(C)C(C)(C)O)C(C)(C)CCC1` [pinacol ester, all-trans-retinoic acid pinacol ester] as the compound, how does the “growth of vitamin A-deficient rats compared to vehicle control” value (vitamin A-deficient rats) read?
A: significantly enhanced growth compared to vehicle control animals

Q: What about the “growth of vitamin A-deficient rats, comparison between atRA and its esters” value (vitamin A-deficient rats) of the same compound?
A: nearly equivalent to atRA

Q: And the “in vivo activity relative to atRA (growth support)” value (vitamin A-deficient rats)?
A: nearly as active as atRA

Q: Which results are given for `CC1=C(/C=C/C(C)=C/C=C/C(C)=C/C(=O)OC(C)(C)C)C(C)(C)CCC1` [t-butyl-RA, all-trans-retinoic acid tert-butyl ester]?
A: non-toxic dose as multiple of the amount needed to support a physiological growth response (normal male rats; 1 mmole/kg/day (357 mg/kg/day) versus growth dose in vitamin A-deficient rats): at least 3,600 times; testes weight (normal male rats; 1 mmole/kg/day, FIG. 7, listed as t-butyl derivative): no such indication; also recorded: similar; body weight change (normal male rats; first study, 1 mmole/kg/day (300 mg/kg/day atRA, 357 mg/kg/day t-butyl-RA), 7 days, FIG. 5): continued growth; also recorded: did not cause a weight loss; other signs of toxicity (normal male rats; first study, 1 mmole/kg/day, 7 days, FIG. 5): no other externally obvious toxicity; body weight change / apparent toxicity (normal male rats): no apparent toxicity; body weight change / apparent toxicity (normal male rats; listed as t-butyl derivative): normal growth; dose relative to atRA required to produce equivalent teratogenic effects (pregnant rats (embryos)): 10; times less teratogenic than atRA (pregnant rats (embryos)): approximately 10 times; growth (weight change) of vitamin A-deficient rats compared to atRA (vitamin A-deficient rats): did not differ significantly from that of the group fed an equal molar amount of atRA; growth (weight change) of vitamin A-deficient rats compared to atRA (vitamin A-deficient rats; listed as t-butyl derivative): did not differ from that of atRA; growth response of vitamin A-deficient rats compared to atRA (vitamin A-deficient rats): equivalent; growth response of vitamin A-deficient rats compared to atRA (vitamin A-deficient rats; listed as t-butyl derivative): identical; in vivo activity relative to atRA (growth support) (vitamin A-deficient rats): equal to atRA in potency and efficacy; in vivo activity relative to atRA (growth support) (vitamin A-deficient rats; listed as t-butyl derivative): as active as atRA; in vivo activity relative to atRA (growth support) (vitamin A-deficient rats; listed as t-butyrate ester): as active in vivo when given orally as is atRA
